Values joined by “and” are separate entries in the source; they are usually repeats but may differ in a detail not shown here. Equal entries are not always repeated.
Experiments:
[1] = Clinical pharmacokinetics, 25 and 75 mg, compared to Adderall XR and Dexedrine Spansule
[2] = Serum and brain tissue levels following oral administration (LC/MS/MS); details: rat, 5 mg/kg d-amphetamine base
[3] = Stability under concentrated conditions (concentrated HCl, 10 N NaOH, elevated temperature)
[4] = human, in vivo, po, 75 mg, L-lysine-d-amphetamine intact conjugate concentration, oral 75 mg L-lysine-d-amphetamine, individual subjects
[5] = human, in vivo, po, 75 mg, L-lysine-d-amphetamine intact conjugate concentration, oral 75 mg L-lysine-d-amphetamine, mean
[6] = human, oral 25 mg L-lysine-d-amphetamine, individual subjects
[7] = human, oral 75 mg L-lysine-d-amphetamine, individual subjects
[8] = 10 N NaOH, elevated temperature
[9] = conc. HCl, about 90° C. for 1 hour, 0.4 mg/mL

## CC(Cc1ccccc1)NC(=O)C(N)CCCCN [L-lysine-d-amphetamine, 2,6-diaminohexanoic acid-(1-methyl-2-phenylethyl)-amide]
[1]; human, in vivo, po, 75 mg, L-lysine-d-amphetamine intact conjugate concentration, oral 75 mg L-lysine-d-amphetamine, 1 h, mean
  concentration at 1 h: 53 ng/mL
[1]; human, in vivo, po, 75 mg, L-lysine-d-amphetamine intact conjugate concentration, oral 75 mg L-lysine-d-amphetamine, 2 h, mean
  concentration at 2 h: 9.1 ng/mL
[1]; human, in vivo, po, 75 mg, L-lysine-d-amphetamine intact conjugate concentration, oral 75 mg L-lysine-d-amphetamine, 3 h, mean
  concentration at 3 h: 2.6 ng/mL
[1]; human, in vivo, po, 75 mg, L-lysine-d-amphetamine intact conjugate concentration, oral 75 mg L-lysine-d-amphetamine, 4 h, mean
  concentration at 4 h: 0.8 ng/mL
[1]; human, in vivo, po, 75 mg, L-lysine-d-amphetamine intact conjugate concentration, oral 75 mg L-lysine-d-amphetamine, 5 h, individual subjects
  concentration at 5 h: 0 ng/mL
[1]; human, in vivo, po, 75 mg, L-lysine-d-amphetamine intact conjugate concentration, oral 75 mg L-lysine-d-amphetamine, 5 h, mean
  concentration at 5 h: 0 ng/mL
[1]; human, in vivo, po, 75 mg, L-lysine-d-amphetamine intact conjugate concentration, oral 75 mg L-lysine-d-amphetamine, 6 h, individual subjects
  concentration at 6 h: 0 ng/mL
[1]; human, in vivo, po, 75 mg, L-lysine-d-amphetamine intact conjugate concentration, oral 75 mg L-lysine-d-amphetamine, 6 h, mean
  concentration at 6 h: 0 ng/mL
[1]; human, in vivo, po, 75 mg, L-lysine-d-amphetamine intact conjugate concentration, oral 75 mg L-lysine-d-amphetamine, 7 h, individual subjects
  concentration at 7 h: 0 ng/mL
[1]; human, in vivo, po, 75 mg, L-lysine-d-amphetamine intact conjugate concentration, oral 75 mg L-lysine-d-amphetamine, 7 h, mean
  concentration at 7 h: 0 ng/mL
[1]; human, in vivo, po, 75 mg, L-lysine-d-amphetamine intact conjugate concentration, oral 75 mg L-lysine-d-amphetamine, 8 h, individual subjects
  concentration at 8 h: 0 ng/mL
[1]; human, in vivo, po, 75 mg, L-lysine-d-amphetamine intact conjugate concentration, oral 75 mg L-lysine-d-amphetamine, 8 h, mean
  concentration at 8 h: 0 ng/mL
[1]; human, in vivo, po, 75 mg, L-lysine-d-amphetamine intact conjugate concentration, oral 75 mg L-lysine-d-amphetamine, 10 h, individual subjects
  concentration at 10 h: 0 ng/mL
[1]; human, in vivo, po, 75 mg, L-lysine-d-amphetamine intact conjugate concentration, oral 75 mg L-lysine-d-amphetamine, 10 h, mean
  concentration at 10 h: 0 ng/mL
[1]; human, in vivo, po, 75 mg, L-lysine-d-amphetamine intact conjugate concentration, oral 75 mg L-lysine-d-amphetamine, 12 h, individual subjects
  concentration at 12 h: 0 ng/mL
[1]; human, in vivo, po, 75 mg, L-lysine-d-amphetamine intact conjugate concentration, oral 75 mg L-lysine-d-amphetamine, 12 h, mean
  concentration at 12 h: 0 ng/mL
[1]; [4]
  concentration at 16 h: 0 ng/mL
  concentration at 24 h: 0 ng/mL
  concentration at 48 h: 0 ng/mL
  concentration at 72 h: 0 ng/mL
[1]; [5]
  concentration at 16 h: 0 ng/mL
  concentration at 24 h: 0 ng/mL
  concentration at 48 h: 0 ng/mL
  concentration at 72 h: 0 ng/mL
[1]; human, oral 25 mg L-lysine-d-amphetamine, 1 h, individual subjects
  L-lysine-d-amphetamine intact conjugate concentration: 9.2 ng/mL and 10.9 ng/mL and 11.2 ng/mL and 15.2 ng/mL and 12.5 ng/mL and 9.1 ng/mL and 2.7 ng/mL and 20.1 ng/mL and 10.5 ng/mL and 10.8 ng/mL
[1]; human, oral 25 mg L-lysine-d-amphetamine, 2 h, individual subjects
  L-lysine-d-amphetamine intact conjugate concentration: 2.1 ng/mL and 3.1 ng/mL and 1.4 ng/mL and 2.5 ng/mL and 2.9 ng/mL and 1.9 ng/mL and 4.0 ng/mL and 2.3 ng/mL and 0 ng/mL and 1.7 ng/mL
[1]; human, oral 25 mg L-lysine-d-amphetamine, 3 h, individual subjects
  L-lysine-d-amphetamine intact conjugate concentration: 0 ng/mL
[1]; human, oral 25 mg L-lysine-d-amphetamine, 4 h, individual subjects
  L-lysine-d-amphetamine intact conjugate concentration: 0 ng/mL
[1]; human, oral 25 mg L-lysine-d-amphetamine, 5 h, individual subjects
  L-lysine-d-amphetamine intact conjugate concentration: 0 ng/mL
[1]; human, oral 25 mg L-lysine-d-amphetamine, 6 h, individual subjects
  L-lysine-d-amphetamine intact conjugate concentration: 0 ng/mL
[1]; human, oral 25 mg L-lysine-d-amphetamine, 7 h, individual subjects
  L-lysine-d-amphetamine intact conjugate concentration: 0 ng/mL
[1]; human, oral 25 mg L-lysine-d-amphetamine, 8 h, individual subjects
  L-lysine-d-amphetamine intact conjugate concentration: 0 ng/mL
[1]; human, oral 25 mg L-lysine-d-amphetamine, 10 h, individual subjects
  L-lysine-d-amphetamine intact conjugate concentration: 0 ng/mL
[1]; human, oral 25 mg L-lysine-d-amphetamine, 12 h, individual subjects
  L-lysine-d-amphetamine intact conjugate concentration: 0 ng/mL
[1]; [6]
  L-lysine-d-amphetamine intact conjugate AUCinf: 10.62 ng·h/mL and 12.83 ng·h/mL and 11.64 ng·h/mL and 17.66 ng·h/mL and 12.65 ng·h/mL and 9.759 ng·h/mL and 19.56 ng·h/mL and 13.3 ng·h/mL
  L-lysine-d-amphetamine intact conjugate AUClast: 9.18 ng·h/mL and 10.41 ng·h/mL and 10.95 ng·h/mL and 16.31 ng·h/mL and 10.68 ng·h/mL and 8.583 ng·h/mL and 5.439 ng·h/mL and 18.51 ng·h/mL and 10.77 ng·h/mL and 12.35 ng·h/mL
  L-lysine-d-amphetamine intact conjugate Cmax: 9.18 ng/mL and 10.9 ng/mL and 11.2 ng/mL and 15.2 ng/mL and 12.5 ng/mL and 9.05 ng/mL and 6.18 ng/mL and 20.1 ng/mL and 10.5 ng/mL and 10.8 ng/mL
  L-lysine-d-amphetamine intact conjugate Tmax: 1.5 h
[1]; [7]
  L-lysine-d-amphetamine intact conjugate AUCinf: 52.5 ng·h/mL and 87.0 ng·h/mL and 45.0 ng·h/mL and 33.0 ng·h/mL and 44.9 ng·h/mL and 52.3 ng·h/mL and 34.2 ng·h/mL and 31.4 ng·h/mL and 102.9 ng·h/mL and 111.7 ng·h/mL
  L-lysine-d-amphetamine intact conjugate AUClast: 51.2 ng·h/mL and 86.1 ng·h/mL and 44.2 ng·h/mL and 32.0 ng·h/mL and 43.7 ng·h/mL and 50.4 ng·h/mL and 30.9 ng·h/mL and 29.8 ng·h/mL and 102.1 ng·h/mL and 110.8 ng·h/mL
  L-lysine-d-amphetamine intact conjugate Cmax: 48.0 ng/mL and 80.1 ng/mL and 40.5 ng/mL and 29.0 ng/mL and 41.5 ng/mL and 26.5 ng/mL and 30.8 ng/mL and 23.4 ng/mL and 127.0 ng/mL and 88.9 ng/mL
  L-lysine-d-amphetamine intact conjugate Tmax: 1.5 h
[1]; humans, oral, 25 mg
  Intact conjugate as percent of total drug absorption (AUCinf-molar basis): 1.6%
[1]; humans, oral, 75 mg
  Bioavailability over twelve hours vs Adderall XR® (d-amphetamine plus l-amphetamine levels): approximately equivalent
  Bioavailability over twelve hours vs Dexedrine Spansule®: over twenty percent higher
  Intact conjugate as percent of total drug absorption (AUCinf-molar basis): 2.0%
[1]; humans, oral, 75 mg vs Adderall XR® 35 mg and Dexedrine Spansule® 30 mg
  Bioavailability (AUCinf) of d-amphetamine vs both extended release amphetamine products: approximately equivalent
[1]; humans, oral, 25 and 75 mg
  Time of peak levels of intact conjugate: about one hour
[1]; humans, oral, even at the highest dose
  Elimination of intact conjugate: no detectable concentrations present by five hours
[2]
  Intact conjugate in brain tissue: not detected
  Intact conjugate in serum: present in appreciable amounts
[3]; [8]
  % AUC Lys-Amp (HPLC): 99 % AUC
  % AUC d-amphetamine (HPLC): <1 % AUC
[3]; [9]
  % AUC Lys-Amp (HPLC): 96 % AUC
  % AUC d-amphetamine (HPLC): 4 % AUC
[3]; concentrated HCl, about 90° C., 1 hour, HPLC
  d-amphetamine released under concentrated conditions: only a minimal amount

Source: patent US20090181898A1, “ABUSE-RESISTANT A[…]” (SHIRE LLC, priority 2002, published 2009)
